# Test results published in patent US8076487B2, “Pyridone derivative and herbicide” (Kumiai Chemical Industry Co., Ltd., priority 2006, dated 2011).
# Tests used:
# Format in all cases: in vivo
# [1] = tested on: green foxtail (Setaria viridis (L.) P. Beauv.); experiment: Test Example 3: herbicidal effect by application to upland field (foliage treatment); settings: 14th day after application; for herbicidal effect, Green Foxtail: foliage treatment, 1,000 g active ingredient per 1 hectare, greenhouse; for herbicidal effect (index), Green Foxtail: foliage treatment, plants grown two weeks, 1,000 g active ingredient per hectare
# Procedure, shortened: (§1)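 Post-emergence spray at 1,000 g AI/ha of wettable powder in water (1,000 L/ha), onto seedlings grown 2 weeks in greenhouse field-soil pots. Graded day 14.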
# [2] = tested on: slender amaranth (Amaranthus viridis L.); experiment: as above; settings: 14th day after application; for herbicidal effect, Slender Amaranth: foliage treatment, 1,000 g active ingredient per 1 hectare, greenhouse; for herbicidal effect (index), Slender Amaranth: foliage treatment, plants grown two weeks, 1,000 g active ingredient per hectare
# Procedure, shortened: as §1
# [3] = tested on: barnyardgrass (Echinochloa crus-galli (L.) P. Beauv. var. crus-galli); experiment: as above; settings: 14th day after application; for herbicidal effect, Barnyardgrass: foliage treatment, 1,000 g active ingredient per 1 hectare, greenhouse; for herbicidal effect (index), Barnyardgrass: foliage treatment, plants grown two weeks, 1,000 g active ingredient per hectare
# Procedure, shortened: as §1
# [4] = tested on: velvetleaf (Abutilon theophrasti medicus); experiment: as above; settings: 14th day after application; for herbicidal effect, Velvetleaf: foliage treatment, 1,000 g active ingredient per 1 hectare, greenhouse; for herbicidal effect (index), Velvetleaf: foliage treatment, plants grown two weeks, 1,000 g active ingredient per hectare
# Procedure, shortened: as §1
# [5] = tested on: green foxtail (Setaria viridis (L.) P. Beauv.); experiment: Test Example 2: herbicidal effect by soil application to upland field; settings: soil surface spray, upland field soil, 1,000 g active ingredient per hectare, 21st day after application
# Procedure, shortened: (§2)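 Pots of field soil, seeds sown and soil-covered; wettable powder diluted in water sprayed on soil at 1,000 g a.i./ha (1,000 L/ha). Greenhouse-grown; herbicidal effect rated per standard at 21 days post-application.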
# [6] = tested on: slender amaranth (Amaranthus viridis L.); experiment: as above; settings: soil surface spray, upland field soil, 1,000 g active ingredient per hectare, 21st day after application
# Procedure, shortened: as §2
# [7] = tested on: barnyardgrass (Echinochloa crus-galli (L.) P. Beauv. var. crus-galli); experiment: as above; settings: soil surface spray, upland field soil, 1,000 g active ingredient per hectare, 21st day after application
# Procedure, shortened: as §2
# [8] = tested on: velvetleaf (Abutilon theophrasti medicus); experiment: as above; settings: soil surface spray, upland field soil, 1,000 g active ingredient per hectare, 21st day after application
# Procedure, shortened: as §2
# [9] = tested on: early watergrass (Echinochloa oryzicola Vasing); experiment: Test Example 1: herbicidal effect by soil application to paddy field; settings: paddy field soil application; active ingredient 1,000 g per 1 hectare; wettable powder added dropwise to water surface the day after sowing; examined on the 21st day after application
# Procedure, shortened: (§3)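 Plants were sown in flooded (3 cm) paddy soil and evaluated for herbicidal effect 21 days after soil application in a greenhouse.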
# [10] = tested on: Japanese bulrush (Scirpus juncoides Roxb.); experiment: as above; settings: paddy field soil application; active ingredient 1,000 g per 1 hectare; wettable powder added dropwise to water surface the day after sowing; examined on the 21st day after application
# Procedure, shortened: as §3
# [11] = tested on: heartshape false pickerelweed (Monochoria vaginalis (Burm.f.) C.Presl); experiment: as above; settings: paddy field soil application; active ingredient 1,000 g per 1 hectare; wettable powder added dropwise to water surface the day after sowing; examined on the 21st day after application
# Procedure, shortened: as §3
SMILES,"herbicidal effect, Green Foxtail [1]","herbicidal effect, Slender Amaranth [2]","herbicidal effect, Barnyardgrass [3]","herbicidal effect, Velvetleaf [4]","herbicidal effect (index), Green Foxtail [5]","herbicidal effect (index), Slender Amaranth [6]","herbicidal effect (index), Barnyardgrass [7]","herbicidal effect (index), Velvetleaf [8]","herbicidal effect, Echinochloa oryzicola Vasing [9]","herbicidal effect, Scirpus juncoides Roxb. [10]","herbicidal effect, Monochoria vaginalis (Burm. f.) C. Presl [11]","herbicidal effect (index), Green Foxtail [1]","herbicidal effect (index), Slender Amaranth [2]","herbicidal effect (index), Barnyardgrass [3]","herbicidal effect (index), Velvetleaf [4]"
CCCCn1c(C(F)(F)F)ccc(C(=O)C2=C(O)C3CCC(C3)C2=O)c1=O (stereo not shown) [III-6],5 (90% or more of herbicidal effect and crop phytotoxicity),5 (90% or more of herbicidal effect and crop phytotoxicity),5 (90% or more of herbicidal effect and crop phytotoxicity),5 (90% or more of herbicidal effect and crop phytotoxicity),5 (90% or more of herbicidal effect and crop phytotoxicity),5 (90% or more of herbicidal effect and crop phytotoxicity),5 (90% or more of herbicidal effect and crop phytotoxicity),5 (90% or more of herbicidal effect and crop phytotoxicity),5 (90% or more of herbicidal effect and crop phytotoxicity),5 (90% or more of herbicidal effect and crop phytotoxicity),5 (90% or more of herbicidal effect and crop phytotoxicity),–,–,–,–
CCC(C)n1c(C(F)(F)F)ccc(C(=O)c2cnn(C)c2O)c1=O (stereo not shown) [IV-8],4 (70 to less than 90% of herbicidal effect and crop phytotoxicity),5 (90% or more of herbicidal effect and crop phytotoxicity),5 (90% or more of herbicidal effect and crop phytotoxicity),5 (90% or more of herbicidal effect and crop phytotoxicity),5 (90% or more of herbicidal effect and crop phytotoxicity),5 (90% or more of herbicidal effect and crop phytotoxicity),5 (90% or more of herbicidal effect and crop phytotoxicity),5 (90% or more of herbicidal effect and crop phytotoxicity),5 (90% or more of herbicidal effect and crop phytotoxicity),5 (90% or more of herbicidal effect and crop phytotoxicity),5 (90% or more of herbicidal effect and crop phytotoxicity),–,–,–,–
COCCn1c(C(F)(F)F)ccc(C(=O)C2=C(O)C3CCC(C3)C2=O)c1=O (stereo not shown) [III-19],5 (90% or more of herbicidal effect and crop phytotoxicity),5 (90% or more of herbicidal effect and crop phytotoxicity),5 (90% or more of herbicidal effect and crop phytotoxicity),5 (90% or more of herbicidal effect and crop phytotoxicity),5 (90% or more of herbicidal effect and crop phytotoxicity),5 (90% or more of herbicidal effect and crop phytotoxicity),5 (90% or more of herbicidal effect and crop phytotoxicity),5 (90% or more of herbicidal effect and crop phytotoxicity),5 (90% or more of herbicidal effect and crop phytotoxicity),5 (90% or more of herbicidal effect and crop phytotoxicity),5 (90% or more of herbicidal effect and crop phytotoxicity),–,–,–,–
"Cn1c(C(F)(F)F)ccc(C(=O)C2=C(O)CCCC2=O)c1=O [I-1, 2-[1,2-dihydro-1-methyl-2-oxo-6-(trifluoromethyl)-pyridine-3-carbonyl]-3-hydroxy-2-cyclohexen-1-one]",–,–,–,–,4 (70 to less than 90% of herbicidal effect and crop phytotoxicity),5 (90% or more of herbicidal effect and crop phytotoxicity),5 (90% or more of herbicidal effect and crop phytotoxicity),5 (90% or more of herbicidal effect and crop phytotoxicity),5 (90% or more of herbicidal effect and crop phytotoxicity),5 (90% or more of herbicidal effect and crop phytotoxicity),5 (90% or more of herbicidal effect and crop phytotoxicity),3 (50 to less than 70% of herbicidal effect and crop phytotoxicity),5 (90% or more of herbicidal effect and crop phytotoxicity),4 (70 to less than 90% of herbicidal effect and crop phytotoxicity),5 (90% or more of herbicidal effect and crop phytotoxicity)
O=C1CCCC(O)=C1C(=O)c1ccc(C(F)(F)F)n(-c2ccccc2Cl)c1=O [I-73],–,–,–,–,5 (90% or more of herbicidal effect and crop phytotoxicity),5 (90% or more of herbicidal effect and crop phytotoxicity),5 (90% or more of herbicidal effect and crop phytotoxicity),5 (90% or more of herbicidal effect and crop phytotoxicity),5 (90% or more of herbicidal effect and crop phytotoxicity),5 (90% or more of herbicidal effect and crop phytotoxicity),5 (90% or more of herbicidal effect and crop phytotoxicity),4 (70 to less than 90% of herbicidal effect and crop phytotoxicity),5 (90% or more of herbicidal effect and crop phytotoxicity),5 (90% or more of herbicidal effect and crop phytotoxicity),5 (90% or more of herbicidal effect and crop phytotoxicity)
CCCS(=O)(=O)Oc1c(C(=O)c2ccc(C(F)(F)F)n(CC3CC(C)=NO3)c2=O)cnn1CC (stereo not shown) [IV-106],5 (90% or more of herbicidal effect and crop phytotoxicity),5 (90% or more of herbicidal effect and crop phytotoxicity),5 (90% or more of herbicidal effect and crop phytotoxicity),5 (90% or more of herbicidal effect and crop phytotoxicity),5 (90% or more of herbicidal effect and crop phytotoxicity),5 (90% or more of herbicidal effect and crop phytotoxicity),5 (90% or more of herbicidal effect and crop phytotoxicity),5 (90% or more of herbicidal effect and crop phytotoxicity),5 (90% or more of herbicidal effect and crop phytotoxicity),5 (90% or more of herbicidal effect and crop phytotoxicity),5 (90% or more of herbicidal effect and crop phytotoxicity),–,–,–,–
CCn1c(C(F)(F)F)ccc(C(=O)C2=C(Sc3ccccc3)C3CCC(C3)C2=O)c1=O (stereo not shown) [III-15],5 (90% or more of herbicidal effect and crop phytotoxicity),5 (90% or more of herbicidal effect and crop phytotoxicity),5 (90% or more of herbicidal effect and crop phytotoxicity),5 (90% or more of herbicidal effect and crop phytotoxicity),5 (90% or more of herbicidal effect and crop phytotoxicity),5 (90% or more of herbicidal effect and crop phytotoxicity),5 (90% or more of herbicidal effect and crop phytotoxicity),5 (90% or more of herbicidal effect and crop phytotoxicity),5 (90% or more of herbicidal effect and crop phytotoxicity),5 (90% or more of herbicidal effect and crop phytotoxicity),5 (90% or more of herbicidal effect and crop phytotoxicity),–,–,–,–
COCCCn1c(C(F)(F)F)ccc(C(=O)c2cnn(C)c2OC(C)=O)c1=O [IV-48],4 (70 to less than 90% of herbicidal effect and crop phytotoxicity),5 (90% or more of herbicidal effect and crop phytotoxicity),5 (90% or more of herbicidal effect and crop phytotoxicity),5 (90% or more of herbicidal effect and crop phytotoxicity),5 (90% or more of herbicidal effect and crop phytotoxicity),5 (90% or more of herbicidal effect and crop phytotoxicity),4 (70 to less than 90% of herbicidal effect and crop phytotoxicity),5 (90% or more of herbicidal effect and crop phytotoxicity),5 (90% or more of herbicidal effect and crop phytotoxicity),5 (90% or more of herbicidal effect and crop phytotoxicity),5 (90% or more of herbicidal effect and crop phytotoxicity),–,–,–,–
